The values that follow come from patent US20180147134A1, “ANTI-CELL SENESCENCE COSMETIC COMPOSITION, USE OF CASEARIA SYLVESTRIS AND/OR HIMENAEA COURBARIL, METHOD OF PREVENTING CELL SENESCENCE AND A METHOD FOR MODULATING THE EXPRESSION OF B-GALACTOSIDASE, P16, P21 AND/OR IL-8” (Natura Cosméticos S.A., priority 2016, published 2018).

Holding throughout (type): cell-based
Test [1] relates to cell senescence-associated lysosomal b-galactosidase. Kind of test: in vitro model of induced early cell aging (cell senescence), UVA/UVB: senescence-associated lysosomal b-galactosidase (flow cytometry and cytochemical marking). The following applies: in the presence of agent.
Source text: (§1) An in vitro model of induced early cell aging (cell senescence) was developed and used to evaluate whether certain cosmetic ingredients can protect or delay molecular mechanisms that lead to aging of skin cells or to loss of functional competence (loss of cellular vitality).
A further test concerns transcription factor p16. Kind of test: in vitro model of induced cell senescence: expression of p16. The following applies: protection of the cells with agent.
Test [2] deals with inflammatory cytokine IL-8. Kind of test: in vitro model of induced cell senescence: expression of IL-8. The note with it: UVA + agent.
Source text: as §1
In the next test the test system is transcription factor p21. Kind of test: in vitro model of induced cell senescence: expression of p21. The following applies: protection of the cells with agent.

Source text for transcription factor p16: as §1
Source text for transcription factor p21: as §1

For the compound `O=C(O)/C=C/c1ccc(O)c(O)c1` [caffeic acid], the “appearance of b-galactosidase marking induced by UV” value in test [1] is on record as “reduced”. Also, in the test on transcription factor p16, the “induced expression of p16” value is listed as “reduces”. In test [2], the “expression of IL-8” value is “reduced”.

As to `Cc1c(C)c2c(c(C)c1O)CCC(C)(C(=O)O)O2` (stereo not shown) [trolox], the “appearance of b-galactosidase marking induced by UV” value in test [1] is “reduced”. Besides, the “induced expression of p16” value with transcription factor p16 is on record as “reduces”. Moreover, in the test with transcription factor p21, the “induced expression of p21” value is reported as “reduces”. Besides, the “expression of IL-8” value in test [2] is given as “reduced”.
